Laboratory results taken from paper PMC10303200 (ACS Central Science, 2023).

Key:
[1] = test system: SARS-CoV-2 (hCoV-19/Canada/ON-VIDO-01/2020), ACE2+ HEK293 cells; assay type: cell-based
[2] = test system: GFP-encoding SARS-CoV-2 pseudotyped virus, ACE2+ HEK293 cells; assay type: cell-based

## O=C1N[C@@H]2[C@@H](O)[C@@H](O)[C@H](O)[C@@H](CO)N2C1=O [kifunensine]
[1]
  infection by authentic virus (viral titers, PFU): concentration-dependent decrease in infection
[2]
  infection by pseudotyped virus (%GFP+ cells): decreased significantly
